Target: mt G12D KRas (Homo sapiens, UniProt P01116, G12D)
Assay: Mant-GDP assay (inhibition of GTP displacing mant-GDP)
Assay type: binding
Conditions: for displacing mant-GDP from mt G12D KRas (in words): assay optimization, FIG. 1A

mt G12D KRas, sequence (P01116 1-188 isoform P01116-2 G12D): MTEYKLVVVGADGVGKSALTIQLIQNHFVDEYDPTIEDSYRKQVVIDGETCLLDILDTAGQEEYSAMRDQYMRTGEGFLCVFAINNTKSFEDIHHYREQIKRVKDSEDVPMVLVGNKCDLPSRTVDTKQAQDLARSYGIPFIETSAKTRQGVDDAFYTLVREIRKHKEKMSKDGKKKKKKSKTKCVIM

Row | SMILES | displacing mant-GDP from mt G12D KRas (in words) | IC50 (GTP titration in the absence of compounds, FIG. 3C, read-out: IC50 of GTP to displace mant-GDP) [nM]
1 | Nc1nc2c(ncn2[C@@H]2O[C@H](COP(=O)(O)OP(=O)(O)O)[C@@H](O)[C@H]2O)c(=O)[nH]1 [GDP] | very effective | 
2 | Nc1nc2c(ncn2[C@@H]2O[C@H](COP(=O)(O)OP(=O)(O)OP(=O)(O)O)[C@@H](O)[C@H]2O)c(=O)[nH]1 [GTP] | very effective | 620

From patent US11352370B2, “Mutant KRAS inhibitors” (H. LEE MOFFITT CANCER CENTER AND RESEARCH INSTITUTE, INC., priority 2015, dated 2022)
